This note sets out measurements from article PMC5791972 (PLoS ONE, 2018).

By inhibition is commonly meant the relative decrease from the control value, in per cent. The term IC50 denotes the concentration that inhibits the measured activity by half. Read a high IC50 as lower potency.

Where two headings read alike, the source gives them in different places.

One assay concerns the target T1, β1 (h) (Homo sapiens, UniProt P08588).
T1 construct: host or cells: HEK-293 cells
Format: binding. Conditions: 1.0E-06 M.

A further assay deals with T2, PPARγ (h) (Homo sapiens, UniProt P37231).
T2 construct: Cerep; host or cells: E. coli
T2 sequence (P37231 1-505): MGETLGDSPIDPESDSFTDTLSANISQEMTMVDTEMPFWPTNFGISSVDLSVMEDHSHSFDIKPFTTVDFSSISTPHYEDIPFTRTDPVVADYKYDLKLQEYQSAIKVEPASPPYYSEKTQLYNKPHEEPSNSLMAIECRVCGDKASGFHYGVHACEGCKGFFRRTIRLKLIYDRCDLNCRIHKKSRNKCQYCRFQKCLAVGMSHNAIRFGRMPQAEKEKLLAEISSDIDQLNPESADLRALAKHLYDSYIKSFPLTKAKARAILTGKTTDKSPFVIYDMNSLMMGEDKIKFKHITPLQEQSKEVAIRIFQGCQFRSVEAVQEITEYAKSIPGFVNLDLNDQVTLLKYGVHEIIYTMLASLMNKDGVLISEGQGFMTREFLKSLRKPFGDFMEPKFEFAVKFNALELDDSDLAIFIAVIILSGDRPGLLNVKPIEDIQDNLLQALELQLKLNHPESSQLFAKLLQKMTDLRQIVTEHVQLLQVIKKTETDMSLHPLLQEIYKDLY
Format: binding.

The next assay addresses T3, 5-HT2A (h) (Homo sapiens, UniProt P28223).
T3 construct: host or cells: HEK-293 cells
Format: binding.

The target in the next assay is T4, VPAC1 (VIP1) (h) (Homo sapiens, UniProt P32241).
T4 construct: host or cells: CHO cells
T4 sequence (P32241 31-457): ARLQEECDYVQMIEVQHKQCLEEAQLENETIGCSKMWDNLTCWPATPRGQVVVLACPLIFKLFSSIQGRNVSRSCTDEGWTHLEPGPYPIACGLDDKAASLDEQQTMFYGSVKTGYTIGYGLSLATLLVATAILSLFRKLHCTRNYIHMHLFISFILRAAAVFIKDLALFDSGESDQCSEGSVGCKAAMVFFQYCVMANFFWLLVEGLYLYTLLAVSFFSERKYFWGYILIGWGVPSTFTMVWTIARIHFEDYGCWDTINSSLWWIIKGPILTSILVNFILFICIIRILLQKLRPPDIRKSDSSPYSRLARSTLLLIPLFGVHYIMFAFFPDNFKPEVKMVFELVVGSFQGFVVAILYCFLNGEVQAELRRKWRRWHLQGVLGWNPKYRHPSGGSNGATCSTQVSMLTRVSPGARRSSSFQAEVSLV
It is filed as binding. The following applies: 1.0E-06 M.

The test system of another assay is Na+ channel (site 2). It is filed as binding, rat. The following applies: 1.0E-06 M.
For a further assay, the target named is T5, COX2 (h) (Homo sapiens, UniProt P35354).
T5 construct: Cerep (contract assay); host or cells: Sf9 cells
T5 sequence (P35354 18-604): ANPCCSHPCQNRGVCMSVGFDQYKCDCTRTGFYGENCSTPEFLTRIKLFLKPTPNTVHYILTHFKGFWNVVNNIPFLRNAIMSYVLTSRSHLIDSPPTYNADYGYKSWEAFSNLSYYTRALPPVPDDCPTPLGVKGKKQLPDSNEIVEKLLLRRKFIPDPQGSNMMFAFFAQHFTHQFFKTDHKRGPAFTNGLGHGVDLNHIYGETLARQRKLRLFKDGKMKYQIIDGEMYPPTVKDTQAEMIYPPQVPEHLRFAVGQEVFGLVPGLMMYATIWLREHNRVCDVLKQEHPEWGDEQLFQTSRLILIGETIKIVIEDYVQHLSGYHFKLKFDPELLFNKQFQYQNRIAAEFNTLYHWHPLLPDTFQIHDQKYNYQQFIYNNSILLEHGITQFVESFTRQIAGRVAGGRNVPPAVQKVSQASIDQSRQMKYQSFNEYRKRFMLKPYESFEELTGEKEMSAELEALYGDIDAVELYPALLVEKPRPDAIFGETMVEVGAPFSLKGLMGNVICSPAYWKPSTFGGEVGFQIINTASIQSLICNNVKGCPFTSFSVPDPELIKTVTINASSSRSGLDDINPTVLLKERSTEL
Briefly: enzyme assay. It is filed as biochemical. Conditions: 1.0E-06 M.

The target of another assay is TRPC6 (Homo sapiens, UniProt Q9Y210). Put plainly: cell-based.
TRPC6, sequence (Q9Y210 whole entry, species assumed): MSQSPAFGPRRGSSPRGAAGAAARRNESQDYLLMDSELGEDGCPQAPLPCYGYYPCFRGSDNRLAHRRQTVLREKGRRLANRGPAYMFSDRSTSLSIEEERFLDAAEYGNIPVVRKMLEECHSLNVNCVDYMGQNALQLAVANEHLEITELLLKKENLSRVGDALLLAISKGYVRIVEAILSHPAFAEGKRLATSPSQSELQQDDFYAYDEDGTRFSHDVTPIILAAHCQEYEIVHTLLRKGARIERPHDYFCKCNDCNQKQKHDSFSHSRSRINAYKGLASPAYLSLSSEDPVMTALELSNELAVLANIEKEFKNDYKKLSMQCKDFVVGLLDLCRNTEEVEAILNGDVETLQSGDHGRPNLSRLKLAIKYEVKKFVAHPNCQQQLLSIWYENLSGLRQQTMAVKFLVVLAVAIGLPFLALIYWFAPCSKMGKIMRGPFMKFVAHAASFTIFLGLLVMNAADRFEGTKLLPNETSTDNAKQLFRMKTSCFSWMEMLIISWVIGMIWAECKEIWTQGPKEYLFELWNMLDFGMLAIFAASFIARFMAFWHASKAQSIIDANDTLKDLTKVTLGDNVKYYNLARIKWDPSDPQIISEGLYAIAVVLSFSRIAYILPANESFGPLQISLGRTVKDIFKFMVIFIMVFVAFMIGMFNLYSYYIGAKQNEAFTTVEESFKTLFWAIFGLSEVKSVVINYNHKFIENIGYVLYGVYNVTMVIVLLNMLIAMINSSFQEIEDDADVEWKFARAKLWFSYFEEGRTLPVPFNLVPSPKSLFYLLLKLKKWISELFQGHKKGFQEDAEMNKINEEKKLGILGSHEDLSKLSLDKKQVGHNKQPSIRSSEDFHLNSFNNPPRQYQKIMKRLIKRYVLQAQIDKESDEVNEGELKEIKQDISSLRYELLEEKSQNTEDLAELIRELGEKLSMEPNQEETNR
For the next assay, the target named is 5-HT1D (Rattus norvegicus, UniProt P28565). Briefly: biochemical.
5-HT1D, sequence (P28565 whole entry): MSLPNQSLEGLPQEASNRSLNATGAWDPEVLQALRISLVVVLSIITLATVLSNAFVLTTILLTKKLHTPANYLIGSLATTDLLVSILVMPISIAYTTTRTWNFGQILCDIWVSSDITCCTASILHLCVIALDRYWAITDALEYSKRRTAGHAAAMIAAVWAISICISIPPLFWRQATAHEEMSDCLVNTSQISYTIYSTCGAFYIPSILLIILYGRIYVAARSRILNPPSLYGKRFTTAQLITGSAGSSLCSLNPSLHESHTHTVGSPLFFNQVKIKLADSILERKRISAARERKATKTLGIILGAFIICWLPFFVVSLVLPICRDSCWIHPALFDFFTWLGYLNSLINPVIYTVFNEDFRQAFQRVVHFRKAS

T3 sequence (P28223 whole entry): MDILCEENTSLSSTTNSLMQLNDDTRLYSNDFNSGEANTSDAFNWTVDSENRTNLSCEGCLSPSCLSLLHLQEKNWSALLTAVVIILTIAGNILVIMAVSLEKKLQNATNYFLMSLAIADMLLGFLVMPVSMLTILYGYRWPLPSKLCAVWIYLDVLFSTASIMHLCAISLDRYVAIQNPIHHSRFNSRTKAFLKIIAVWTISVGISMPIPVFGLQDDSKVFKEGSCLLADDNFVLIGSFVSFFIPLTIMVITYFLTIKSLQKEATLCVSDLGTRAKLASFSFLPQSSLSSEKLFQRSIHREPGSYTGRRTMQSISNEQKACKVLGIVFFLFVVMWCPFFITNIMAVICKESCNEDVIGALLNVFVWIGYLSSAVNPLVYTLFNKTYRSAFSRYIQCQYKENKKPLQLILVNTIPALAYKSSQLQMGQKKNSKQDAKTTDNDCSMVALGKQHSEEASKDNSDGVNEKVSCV
T1 sequence (P08588 whole entry): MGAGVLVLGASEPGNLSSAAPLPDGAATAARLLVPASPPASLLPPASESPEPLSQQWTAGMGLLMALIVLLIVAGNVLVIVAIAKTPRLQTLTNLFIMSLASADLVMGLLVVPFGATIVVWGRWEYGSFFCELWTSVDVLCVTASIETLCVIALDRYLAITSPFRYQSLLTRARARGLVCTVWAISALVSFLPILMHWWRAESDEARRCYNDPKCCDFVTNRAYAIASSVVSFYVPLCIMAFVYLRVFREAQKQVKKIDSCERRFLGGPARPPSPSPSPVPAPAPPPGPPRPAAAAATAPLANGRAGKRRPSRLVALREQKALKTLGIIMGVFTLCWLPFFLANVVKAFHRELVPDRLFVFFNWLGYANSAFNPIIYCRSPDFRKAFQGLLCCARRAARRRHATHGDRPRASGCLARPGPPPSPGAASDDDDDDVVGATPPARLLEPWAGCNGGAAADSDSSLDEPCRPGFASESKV

As to `Cn1c(=O)n(CCCO)c(=O)c2c1nc(Oc1cccc(OC(F)(F)F)c1)n2Cc1ccc(Cl)cc1` [HC-608], the inhibition at 1 µM is -14.5% at β1 (h) (read-out: % Inhibition 1st); -1.8% at β1 (h) (read-out: % Inhibition 2nd); -8.1% on β1 (h) (read-out: % Inhibition Mean); 6.7% on PPARγ (h) (1.0E-06 M, read-out: % Inhibition 1st); 16.2% at PPARγ (h) (1.0E-06 M, read-out: % Inhibition 2nd); 11.5% on PPARγ (h) (read-out: % Inhibition Mean). The inhibition at 1 µM at 5-HT2A (h) (read-out: % Inhibition 1st) was -4.3%; at 5-HT2A (h) (read-out: % Inhibition 2nd) it was 6.9%; on 5-HT2A (h) (read-out: % Inhibition Mean), 1.3%; on VPAC1 (VIP1) (h) (read-out: % Inhibition 1st) it was -9%; on VPAC1 (VIP1) (h) (read-out: % Inhibition 2nd), -8.4%; on VPAC1 (VIP1) (h) (read-out: % Inhibition Mean), -8.7%. The inhibition at 1 µM was -5.6% at COX2 (h) (read-out: % Inhibition 1st); 11.8% at COX2 (h) (read-out: % Inhibition 2nd); 3.1% on COX2 (h) (read-out: % Inhibition Mean); -4.2% on 5-HT1D (read-out: % Inhibition 1st); -8.8% at 5-HT1D (read-out: % Inhibition 2nd); -6.5% at 5-HT1D (read-out: % Inhibition Mean). Also, the “% Inhibition 1st” value in the assay with Na+ channel (site 2) was 12%. In addition, the “% Inhibition 2nd” value in the assay on Na+ channel (site 2) is -7.3%. In the assay on Na+ channel (site 2), the “% Inhibition Mean” value turned out to be 2.3%. For the same compound, at TRPC6, the IC50 was greater than 1640 nM.
